The term IC50 denotes the concentration at which inhibition is half-maximal. A lower IC50 goes with inhibition by little substance.

Marks after values point to notes of the source that are not given here.

The test system of one data set is L02 cells. Kind of data set: Cell protection in PA-stimulated L02 cells (Cell Titer-Glo viability). Format: cell-based, human. Particulars: 50 μmol/L PA, 72 h. How it is done: L02 cells were cultured in DMEM medium (Gibco, 11 965 092, Carlsbad, CA, USA) supplemented with 20% FBS and 1× penicillin–streptomycin. L02 cells were inoculated in two 96‐well plates at 1E4 cells/well (200 μL). The following day, the cells were stimulated with 50 μmol/L PA (dissolved in ethanol to make a 200× stock solution and then added to the medium) and simultaneously incubated with different concentrations of CS17919 and GS‐4997 (CS17919 and GS‐4997 stock solutions were added to the well plates to reach a final concentration of 10–0.3 μmol/L). After 72 h of incubation, the original medium was removed, followed by the addition of 100 μL of new DMEM medium and 60 μL of Cell Titer‐Glo reagent per well. The cells were incubated for 5 min in the dark, and then transferred to a black permeable plate for detection using an enzyme plate reader (Tecan spark, Grödig, Austria).
(ATP-based viability assays read luminescence as a measure of living cells.)

The next data set deals with CCC‐HEL‐1. Kind of data set: MTS cytotoxicity assay, CCC-HEL-1. Particulars: 72 h. Format: cell-based, human. How it is done:
Human embryonic kidney cells (HEK‐293A), human hepatocellular carcinoma cells (HUH7), human embryonic liver diploid cells (CCC‐HEL‐1) and human embryonic lung cells (MRC‐5) were selected for the cytotoxicity study of both drugs, using the MTS assay protocol. Cells were cultured at 37°C with 5% CO2 using an appropriate medium. […] After 72 h of incubation, 30 μL of MTS solution was added to each well, and the cells were then incubated for 2–4 h in the dark. The absorbance value of each well at 490 nm was measured using an enzymatic plate reader and the IC50 for each drug and each cell line was calculated. Cell viability and cytoxicity experiments were repeated three times.

Another data set deals with HEK‐293A. Kind of data set: MTS cytotoxicity assay, HEK-293A. The class given is cell-based, human. Particulars: 72 h. How it is done: Human embryonic kidney cells (HEK‐293A), human hepatocellular carcinoma cells (HUH7), human embryonic liver diploid cells (CCC‐HEL‐1) and human embryonic lung cells (MRC‐5) were selected for the cytotoxicity study of both drugs, using the MTS assay protocol. Cells were cultured at 37°C with 5% CO2 using an appropriate medium. For the assay, the cells were evenly distributed at 1E4 cells/well in 96‐well plates, and then CS17919 or GS‐4997 was added to the plates in a dose‐dependent manner (3‐fold dilution from 100 μmol/L). After 72 h of incubation, 30 μL of MTS solution was added to each well, and the cells were then incubated for 2–4 h in the dark. The absorbance value of each well at 490 nm was measured using an enzymatic plate reader and the IC50 for each drug and each cell line was calculated. Cell viability and cytoxicity experiments were repeated three times.
A general note: Tetrazolium dyes change colour on reduction, which living cells bring about.

The subject of the next data set is NASH mouse model. Kind of data set: CCL4- and HFD-induced NASH mouse model. Conditions: CS17919 20 mg/kg. Format: in vivo, C57BL/6J mice. The method, then:
41 C57BL/6J mice, male, 6–8 weeks of age, were purchased from Chengdu Dossy Experimental Animal Co. (Chengdu, China), 9 of which were assigned in the control group and fed a chow diet. The other 32 mice were fed a HFD (D12429, Research diet, USA). After 8 weeks of feeding, these mice with HFD were subcutaneously injected with CCL4 (0.1 mL/kg) twice a week. These mice were then randomly subdivided into 4 groups according to serum ALT and AST at week 12: Model (n = 8), CS17919 (n = 8), CS27109 (n = 8), and Combination (n = 8). Both the control and model groups were given the solvent mentioned above, administered orally twice a day, while CS17919 was administered twice a day by gavage at a dose of 20 mg/kg and CS27109 was administered twice a day by gavage at a dose of 10 mg/kg for 4 weeks. The body weight of each mouse was measured every 3 days during the drug intervention. All animals were fasted overnight after the last drug administration and blood was collected to isolate serum for biochemical tests including AST, ALT, TG, TC, HDL‐c, and LDL‐c. The liver of each mouse was removed, the right lobe of which was fixed in 10% formalin solution for pathological study.
H&E staining was applied to determine scores for liver steatosis, ballooning and inflammation in the NASH model. Thin 4 μm paraffin sections of each sample were used to assess liver histology, following a standard protocol. Paraffin sections were deparaffinized and placed in Hematoxylin staining solution for 3–8 min before using tap water to elute excess Hematoxylin. Sections were stained in Eosin stain for about 1–3 min and rinsed with tap water. Finally, the slices were dehydrated and sealed. Score ranges were 0–3 for liver steatosis, 0–2 for ballooning and 0–12 for inflammation (which included scores of 0–3 for portal inflammation, 0–3 for lobular inflammation, 0–3 for piecemeal necrosis, and 0–3 for bridging necrosis).
Sirius Red staining was applied to determine liver fibrosis in the NASH model. Thin 4 μm paraffin sections of each sample were used in this study followed the standard procedure. Sections were first stained with Hematoxylin for 5–10 min, then washed and stained with Sirius Red stain about 15–30 min. Finally, the sections were rinsed and sealed. Image‐Pro Plus 6.0 was used for analyzing the area of liver fibrosis and the percentage of the fibrosis area in each section was calculated.

For the next data set, the target named is CYP 2B6 (Homo sapiens, UniProt P20813). The data set is described as follows: CYP inhibition in vitro. The class given is in vitro ADME.
Sequence of CYP 2B6 (P20813 whole entry): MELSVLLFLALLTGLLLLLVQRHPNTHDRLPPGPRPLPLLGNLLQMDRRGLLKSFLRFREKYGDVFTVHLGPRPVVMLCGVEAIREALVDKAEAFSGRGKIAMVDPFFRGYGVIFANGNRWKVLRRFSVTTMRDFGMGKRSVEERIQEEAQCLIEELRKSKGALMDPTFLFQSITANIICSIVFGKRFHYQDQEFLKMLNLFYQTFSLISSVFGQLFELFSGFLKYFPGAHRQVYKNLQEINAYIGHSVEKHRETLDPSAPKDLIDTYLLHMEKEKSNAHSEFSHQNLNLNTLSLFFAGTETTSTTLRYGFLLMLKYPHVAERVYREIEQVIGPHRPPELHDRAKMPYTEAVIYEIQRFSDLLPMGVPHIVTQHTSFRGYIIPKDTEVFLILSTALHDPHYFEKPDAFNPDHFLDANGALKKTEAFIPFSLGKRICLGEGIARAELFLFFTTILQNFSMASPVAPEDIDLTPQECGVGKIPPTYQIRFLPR
Data set [1] is described as follows: Metabolic stability in liver microsomes. The class given is in vitro ADME. Particulars: Mouse.
For another data set, the target named is CYP3A4 (Homo sapiens, UniProt P08684).
Sequence of CYP3A4 (P08684 whole entry): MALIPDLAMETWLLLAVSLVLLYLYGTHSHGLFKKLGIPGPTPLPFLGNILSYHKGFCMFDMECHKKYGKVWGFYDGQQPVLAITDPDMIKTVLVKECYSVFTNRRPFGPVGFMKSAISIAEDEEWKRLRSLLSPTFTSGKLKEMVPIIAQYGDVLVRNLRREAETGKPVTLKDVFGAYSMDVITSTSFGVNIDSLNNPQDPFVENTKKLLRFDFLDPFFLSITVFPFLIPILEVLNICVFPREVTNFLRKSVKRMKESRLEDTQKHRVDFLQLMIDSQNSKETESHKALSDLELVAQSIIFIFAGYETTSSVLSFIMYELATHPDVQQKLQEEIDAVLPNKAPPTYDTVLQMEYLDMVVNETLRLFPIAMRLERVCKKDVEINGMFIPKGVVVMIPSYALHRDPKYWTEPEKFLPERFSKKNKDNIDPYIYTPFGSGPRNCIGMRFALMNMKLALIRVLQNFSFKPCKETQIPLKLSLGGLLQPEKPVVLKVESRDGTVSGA
Where [2] appears, read: 4 weeks, CS27109 10 mg/kg twice a day.
The mark [3] stands for this setting: serum after 4 weeks, CS27109 10 mg/kg, gavage twice a day, mean ± SD.

With `Cc1cc(F)c(C(=O)Nc2cccc(-c3nncn3[C@H](C)C(F)(F)F)n2)cc1NC(=O)C1CC1` [CS17919], in the data set with L02 cells (0.32–10 μmol/L drug), the “Cell protection (cell viability normalized to PA-treated cells)” value is reported as “significantly prevented apoptosis at all doses”. Further, in the data set with L02 cells (5 and 10 μmol/L drug), the “Cell viability at high drug doses” value was “mild protective effect”. In the data set on CCC‐HEL‐1, the “Cytotoxicity (cell viability)” value was “barely affected cell viability”. For the same molecule, the “Cytotoxicity (cell viability)” value with HEK‐293A was “barely affected cell viability”. Also, in the data set on NASH mouse model (setting [2]), the “Liver fibrosis area (Sirius Red staining)” value is listed as “significantly reduced”; the “Liver inflammation score (H&E)” value is recorded as “tended to improve”; the “Liver steatosis and ballooning scores (H&E)” value was “barely improved”. Besides, in the data set on NASH mouse model (setting [3]), the ALT was 120.9 ± 80.3^a U/L, the AST was 193.3 ± 110.1 U/L, the “HDL‐C” value is given as 0.604 ± 0.231 mmol/L and the “LDL‐C” value was 0.054 ± 0.028^a mmol/L. In the data set with NASH mouse model (setting [3]), the TC was 0.719 ± 0.251 mmol/L and the TG was 0.223 ± 0.106 mmol/L. Besides, the IC50 against CYP 2B6 was over 10 µM. The “T1/2 in liver microsomes” value in data set [1] is reported as “>145 min”. On CYP3A4, this molecule gave an IC50 of over 10 µM.
